In patent US20250302837A1, “INHIBITORS OF CHYMASE FOR USE IN THE SELECTIVE RESOLUTION OF THROMBI IN THROMBOTIC OR THROMBOEMBOLIC DISORDERS” (SOCPRA SCIENCES SANTÉ ET HUMAINES S.E.C., priority 2022, published 2025):

Assays:
plasminogen/plasmin = plasminogen/plasmin (Homo sapiens (Human), UniProt P00747); experiment: Halo assay: tPA-induced fibrinolysis of human blood halos, plasmin inhibitor control; conditions: 0.1 μM or 1 μM co-administered with tPA, pre-formed halo
[1] = biological target: Tissue plasminogen activator (Homo sapiens (Human), UniProt P00750); experiment: Serine protease selectivity assay: tPA; format: biochemical
Description: (§1) The potency of test compounds against several other human serine proteases, including coagulation proteases, in buffer was analyzed in biochemical assays based on the fluorimetric detection of aminomethylcoumarine (AMC) cleaved from specific synthetic peptidic substrates by the respective proteases.
(§2) Serine protease assays were comprised of the following enzymes and substrates (final assay concentrations are given).
(§3) Test compounds were diluted in dimethylsulfoxide (DMSO) to final assay concentrations of 0-50 μM. The respective human serine protease and the respective substrate were diluted in buffer solutions (pH 7.4) consisting of 50 mM Tris/HCl, 100 mM NaCl, 5 mM CaCl2, and 0.1% bovine serum albumin to the final concentrations given below. Diluted test compound or DMSO (1 μL) in assay buffer (20 μL), diluted serine protease solution (20 μL), and substrate solution (20 μL) were added to 384-well microtiter plates (Greiner Bio-One, Frickenhausen, Germany).

Trypsin = Trypsin (Homo sapiens, UniProt P07477); experiment: Serine protease selectivity assay: trypsin; format: biochemical
Description: as §1, §2, §3

Plasma kallikrein = Plasma kallikrein (Homo sapiens (Human), UniProt P03952); experiment: Serine protease selectivity assay: plasma kallikrein; format: biochemical
Description: as §1, §2, §3

Factor XIa = Factor XIa (Homo sapiens (Human), UniProt P03951); experiment: Serine protease selectivity assay: factor XIa; format: biochemical
Description: as §1, §2, §3

[2] = biological target: Recombinant human cathepsin G (Homo sapiens (Human), UniProt P08311); experiment: Selectivity: cathepsin G assay; format: biochemical
Description: Recombinant human cathepsin G (CathG) protein (Protein Technologies, Bayer A G) was used. […] IC50 values were calculated using an in-house software.

[3] = biological target: recombinant hamster chymase; experiment: Enzymatic chymase activity assay (hamster)
Plasmin = Plasmin (Homo sapiens (Human), UniProt P00747); experiment: Serine protease selectivity assay: plasmin; format: biochemical
Description: as §1, §2, §3

[4] = test system: chymase in mouse thrombus extracts; experiment: Intra-thrombus chymase enzymatic activity ex vivo, mouse thrombi; format: biochemical; conditions: thrombus from venous stenosis in mouse, +10 μM TY-51469
Description: (§4) Plasmin activity was determined by the hydrolysis rate of 50 μM of substrate, D-Ala-Leu-Lys-7-amido-4-methylcoumarin (Sigma Aldrich, Saint-Louis, MO, USA) at 37° C. for 1 h. Chymase activity was determined by the hydrolysis rate of 10 μM of substrate, Suc-Leu-Leu-Val-Tyr-7-amido-4-methylcoumarin (Peptide Institute Inc., Osaka, Japan) at 37° C. for 1 h. The fluorescence released was measured with an Infinite M1000 spectrophotometer (Tecan Group Ltd., Mannerdorf, Switzerland) with λex=370 nm and λem=460 nm.

Thrombin = Thrombin (Homo sapiens (Human), UniProt P00734); experiment: Serine protease selectivity assay: thrombin; format: biochemical
Description: as §1, §2, §3

[5] = test system: mouse venous stenosis (DVT) model; experiment: Venous stenosis model in mouse (IVC), thrombus measurement; format: in vivo
Description: By doing this, we ensure that the endothelium is not denuded and that a residual flow of 10% in the IVC still remains. The guts were subsequently moved back in their original location in the abdomen and the abdominal cavity was closed in layers with a braided 5.0 absorbable suture. […] The IVCs were dissected post-euthanasia, and thrombi isolated, measured, weighed, and finally stored at −80° C.
(§5) The stenosis was evaluated 24- or 48-hours post-ligation. The IVCs were dissected, and thrombi were isolated, measured, and weighted.
as §5

[6] = test system: mouse tail bleeding model; experiment: Tail bleeding time in mouse; format: in vivo
Description: The tail was cut 3 mm starting from the extremity. The time at which the bleeding stopped was noted. After 30 min, all animals were euthanized.

Factor Xa = Factor Xa (Homo sapiens (Human), UniProt P00742); experiment: Serine protease selectivity assay: factor Xa; format: biochemical
Description: as §1, §2, §3

[7] = test system: mouse FeCl3-induced injury thrombosis model; experiment: Ferric chloride-induced injury at the inferior vena cava in mouse; format: in vivo; conditions: mouse IVC FeCl3 injury; 10 mg/kg TY-51469 intraperitoneal 1 h prior to anesthesia
Description: A laparotomy was performed, and the guts were gently displaced without injury from the abdominal cavity and conserved in 0.9% NaCl solution (37° C.). The IVC was exposed by separation of the vessel between the renal and iliolumbar veins. […] The guts were subsequently moved back in their original location in the abdomen. Mice were sacrificed 30 min later to access the thrombotic area in the IVC. IVCs were dissected and thrombi were isolated and weighted with an analytical balance (0.1 mg accuracy, Entris II, Sartorius).

human chymase (rCMA-1) [8] = biological target: T1, human chymase (rCMA-1) (Homo sapiens (Human), UniProt P23946); experiment: Plasmin activity in the presence of human chymase; format: biochemical; conditions: human plasmin + rCMA-1; fulacimstat 0.1-[…], TY-51469 0.1 or 1 μM
Description: (§6) Active murine cathepsin C was diluted to 20 μg/mL in cathepsin C buffer (50 mM MES, 50 mM NaCl, 5 mM DTT, pH 5.5). Activation was performed by adding equal volumes of recombinant chymase and cathepsin C, adding 50 μg/mL heparin and incubating 1 h at room temperature.

[9] = biological target: recombinant human chymase (Homo sapiens (Human), UniProt P23946); experiment: Enzymatic chymase activity assay (human)
[10] = biological target: recombinant mouse mMCP-4 (rmMCP-4) (Mus musculus (Mouse), UniProt P21812); experiment: Plasmin activity in the presence of murine chymase; format: biochemical; conditions: mouse plasmin + rmMCP-4; fulacimstat 0.1-[…], TY-51469 0.1 or 1 μM
Description: as §6, with “temperature. […] Plasmin activity was determined by the hydrolysis rate of 50 μM of substrate, D-Ala-Leu-Lys-7-amido-4-methylcoumarin (Sigma Aldrich, Saint-Louis, MO, USA) at 37° C. for 1 h, combined in a white 96-well microtitre plate.” for “temperature.”

Mouse chymase (rmMCP-4) = Mouse chymase (rmMCP-4) (Mus musculus (Mouse), UniProt P21812); experiment: Mouse plasmin degradation by chymase, cleavage products by LC-MS/MS; format: biochemical; conditions: FIG. 3B
Description: (§7) The reaction was stopped with an equal volume of formic acid (FA) (for a final concentration of 4% (v/v) in water) and samples were maintained on ice until protein precipitation.
Proteins from in vitro cleavage assays were first precipitated by the addition of trichloroacetic acid (TCA) to a final concentration of 10% (v/v) and incubated for 30 min at −20° C. […] Protein pellet was washed with cold 100% acetone, air dried, and re-suspended in 50 μL of a solution containing 8 M urea, 10 mM HEPES-KOH (pH 7.4). The protein reduction step was carried out by adding DTT (Thermo Fisher Scientific, Waltham, MA, USA) to a final concentration of 5 mM and boil at 95° C. for 2 min, then incubated at room temperature for 30 min. […] Urea concentration was decreased to 2 M by the addition of 150 μL of 50 mM ammonium bicarbonate (NH4HCO3). The proteins were digested by adding 1 g Pierce MS-grade trypsin (Thermo Fisher Scientific, Waltham, MA, USA) and incubated overnight at 30° C. Digestion was stopped by adding trifluoroacetic acid (TFA) to a final concentration of 0.2% (v/v). The peptides were purified with Pierce C18 100-μL tips column (Thermo Fisher Scientific, Waltham, MA, USA). Briefly, the C18 tip column was first moistened by suctioning 100 μL of 100% acetonitrile (ACN) three times, then equilibrated by suctioning 100 μL of 0.1% (v/v) TFA buffer 3 times. […]

[11] = biological target: plasmin in mouse thrombus extracts (Mus musculus (Mouse), UniProt P20918); experiment: Intra-thrombus plasmin enzymatic activity ex vivo, mouse thrombi; format: biochemical; conditions: thrombus from venous stenosis in mouse, +10 μM TY-51469
Description: as §4

[12] = test system: mouse venous stenosis model; experiment: Blood flow (Doppler ultrasound) in venous stenosis model in mice; format: in vivo
Source text: The main goal in thrombosis is to ensure sufficient blood flow for an appropriate maintenance of the tissue surrounding the vessel. […] Mice were anesthetized during the procedure (2% isoflurane; 4% oxygen) and their abdomens were shaved and covered with ultrasound gel.

human chymase (rCMA-1) [13] = biological target: T1, human chymase (rCMA-1); experiment: Human plasmin degradation by chymase, cleavage products by LC-MS/MS; format: biochemical; conditions: FIG. 3A
Description: as §7
Proteins from in vitro cleavage assays were first precipitated by the addition of trichloroacetic acid (TCA) to a final concentration of 10% (v/v) and incubated for 30 min at −20° C. […] Protein pellet was washed with cold 100% acetone, air dried, and re-suspended in 50 μL of a solution containing 8 M urea, 10 mM HEPES-KOH (pH 7.4). […] The proteins were digested by adding 1 g Pierce MS-grade trypsin (Thermo Fisher Scientific, Waltham, MA, USA) and incubated overnight at 30° C. Digestion was stopped by adding trifluoroacetic acid (TFA) to a final concentration of 0.2% (v/v). The peptides were purified with Pierce C18 100-μL tips column (Thermo Fisher Scientific, Waltham, MA, USA). Briefly, the C18 tip column was first moistened by suctioning 100 μL of 100% acetonitrile (ACN) three times, then equilibrated by suctioning 100 μL of 0.1% (v/v) TFA buffer 3 times. Each peptide sample was passed on the balanced C18 tip column by 10 succeeding up-and-downs of 100 μL of the sample. This step was performed twice in order to administer the entire sample on the column. The C18 tip column was then washed with 100 μL of 0.1% (v/v) TFA buffer 3 times. […] This step was carried out 3 times to obtain a final volume of 300 μL. […]

[14] = oral intake; cited from earlier work
[15] = cited from earlier work
[16] = TY-51469 0.1 mg/kg i.p. 1 h after initiation of stenosis, observation 24 h
[17] = TY-51469 1 mg/kg i.p. 1 h after initiation of stenosis, observation 24 h
[18] = TY-51469 10 mg/kg i.p. 1 h after initiation of stenosis, observation 24 h
[19] = TY-51469 10 mg/kg i.p. 24 h after initiation of stenosis, observation 48 h
[20] = 10 mg/kg TY-51469 i.p. 1 h after start of stenosis, 6 h post-ligation
[21] = 10 mg/kg TY-51469 i.p. 1 h after start of stenosis, 24 h post-ligation
[22] = TY-51469 group, non-ligated (pre-ligation baseline)

## Cl.O=c1cc(C2CCNCC2)n2nc3cccc(Cl)c3c2[nH]1 [Example 3 in WO2015067549]
plasminogen/plasmin
  tPA-induced fibrinolysis of human blood halos: very significantly reduced

## Cc1c(S(=O)(=O)Nc2ccc(-c3nc(C(=O)O)cs3)cc2S(C)(=O)=O)sc2ccc(F)cc12 [TY-51469, 2-(4-((5-fluoro-3-methylbenzo-[b]thiophene)-2-sulfonamido)-3-(methylsulfonyl)phenyl)thiazole-4-carboxylic acid]
[1]
  IC50: > 2000 nM
Trypsin
  IC50: > 2000 nM
Plasma kallikrein
  IC50: > 2000 nM
Factor XIa
  IC50: > 2000 nM
[2]; Cathepsin G
  IC50: 1300 nM
[2]; cathepsin G vs chymase
  less potency on cathepsin G than chymase: 60 fold
[3]
  IC50: 66 nM
Plasmin
  IC50: > 2000 nM
[4]
  Chymase activity: 0.33 ± 0.25 nM AMC
Thrombin
  IC50: > 2000 nM
[5]; [16]
  Thrombus length: 3.79 mm
  Thrombus weight: 8.19 mg
[5]; [17]
  Thrombus length: 1.79 mm
  Thrombus weight: 4.04 mg
[5]; [18]
  Thrombus length: 0.22 mm
  Thrombus weight: 0.47 mg
[5]; [19]
  Thrombus length: 1.0 mm
  Thrombus weight: 1.29 mg
[6]; mouse tail bleeding model
  impact on bleeding time (in words): no impact on the bleeding time
[6]; mouse tail bleeding, TY-51469 10 mg/kg
  Bleeding time prolongation: 1.0 xfold of Ctr
[6]; mouse tail bleeding, TY-51469 10 mg/kg IP 1 h prior
  Bleeding time: 4.08 min
Factor Xa
  IC50: > 2000 nM
[7]
  Thrombus weight: 1.31 mg
Human chymase (rCMA-1) [8]
  plasmin activity (fluorescence generation) in presence of chymase: increased again concentration-dependently
[9]
  IC50: 20 nM
[10]
  plasmin activity (fluorescence generation) in presence of chymase: increased again concentration-dependently
Mouse chymase (rmMCP-4)
  degradation of plasmin by chymase: prevented
[11]
  Plasmin activity: 13.16 ± 1.26 nM AMC
[12]; [20]
  Abdominal aorta velocity: 487.6 ± 33.1 mm/s
  Inferior vena cava velocity: 171.6 ± 27.1 mm/s
[12]; [21]
  Abdominal aorta velocity: 505.8 ± 40.4 mm/s
  Inferior vena cava velocity: 158.5 ± 18.3 mm/s
[12]; [22]
  Abdominal aorta velocity: 508.2 ± 29.7 mm/s
  Inferior vena cava velocity: 124.6 ± 28.7 mm/s
Human chymase (rCMA-1) [13]
  degradation of plasmin by chymase: prevented

## Cn1c(=O)oc2cc(-n3cc(C(=O)O)c(=O)n([C@@H]4CCc5c4cccc5C(F)(F)F)c3=O)ccc21 [fulacimstat, 1-(3-methyl-2-oxo-2,3-dihydro-1,3-benzoxazol-6-yl)-2,4-dioxo-3-[(1R)-4-(trifluoromethyl)-2,3-dihydro-1H-inden-1-yl]-1,2,3,4-tetrahydropyrimidine-5-carboxylic acid]
[10]
  plasmin activity (fluorescence generation) in presence of chymase: increased again concentration-dependently
Mouse chymase (rmMCP-4)
  degradation of plasmin by chymase: prevented
[14]
  oral bioavailability: bioavailable after oral intake

## tPA: Recombinant tissue-type plasminogen activator (rtPA, alteplase), the most widely used fibrinolytic drug
[15]
  dominant half-life in human plasma: < 5 min
